According to the NIST ThermoML archive (doi:10.1021/je200813q):

Experiment: mn = molality of the nth substance listed, in mol/kg
Conditions: 101.3 kPa, Liquid, Buoyancy - hydrostatic balance with magnetic suspension - one sinker

O=S(=O)([O-])[O-].[O]=[V+2] [oxovanadium(IV) sulfate] + O
mass density [kg/m3]
Conditions	283.15 K	293.15 K	298.15 K	303.15 K	313.15 K	323.15 K
m1 = 0.5	1074.6	1072.5	1070.7	1068	1065	1060.4
m1 = 0.8	1117.6	1114.8	1113	1110.7	1106.6	1101.7
m1 = 1	1144.9	1141.9	1139.8	1137.6	1133.3	1128.4
m1 = 1.2	1171.8	1169.5	1167.2	1164.6	1159.9	1154.7
m1 = 1.5	1211.3	1207.8	1205.3	1202.7	1198.3	1192.4
m1 = 1.8	1249.6	1245.6	1242.9	1240.4	1235.3	1229.9
m1 = 2	1274.1	1270	1267.4	1264.7	1259.6	1253.9
m1 = 2.2	1298.2	1293.9	1291.2	1288.8	1283.4	1277.6
m1 = 2.5	1333.7	1329.3	1326.5	1323.9	1318.5	1312.7
m1 = 2.8	1367.1	1362.8	1359.8	1357.2	1351.6	1345.6
m1 = 3	1389.5	1384.6	1381.3	1378.8	1373.4	1367.5
